# Patent publication US20070185104A1, “Benzoxazole acetonitriles” (APPLIED RESEARCH SYSTEMS ARS HOLDING N.V., priority 2003, published 2007)
# Molecular target: human GSK3 beta (Homo sapiens, UniProt P49841)
# Test: GSK3β in vitro assay (33P-ATP phosphorylation of phospho GS2 peptide)
# Format: biochemical
# Conditions: In vitro potency on human GSK3 beta; read-out: IC50 (μM) GSK3beta
# Experimental: GSK3β Assay (see Bioorg. Med. Chem. Lett by Naerum et al. 12 p. 1525-1528 (2002))
# In a final reaction volume of 25 μl, GSK3β (h) (5-10 mU) is incubated with 8 mM MOPS pH 7.0, 0.2 mM EDTA, 20 μM […](p)EDEEE (being the GSK3 substrate; a phospho GS2 peptide), 10 mM Mg Acetate and [γ-^33P-ATP] (Specific activity approx. 500 cpm/pmol, concentration as required). The reaction is initiated by the addition of Mg^2+ [γ-^33P-ATP]. After incubation for 40 minutes at room temperature, the reaction is stopped by the addition of 5 μl of a 3% phosphoric acid solution. 10 μl of the reaction is then spotted onto a P30 filtermat and washed three times for 5 minutes in 50 mM phosphoric acid and once in methanol prior to drying and the degree of phosphorylation of the substrate is determined by scintillation counting.
# Chain of human GSK3 beta (P49841 whole entry): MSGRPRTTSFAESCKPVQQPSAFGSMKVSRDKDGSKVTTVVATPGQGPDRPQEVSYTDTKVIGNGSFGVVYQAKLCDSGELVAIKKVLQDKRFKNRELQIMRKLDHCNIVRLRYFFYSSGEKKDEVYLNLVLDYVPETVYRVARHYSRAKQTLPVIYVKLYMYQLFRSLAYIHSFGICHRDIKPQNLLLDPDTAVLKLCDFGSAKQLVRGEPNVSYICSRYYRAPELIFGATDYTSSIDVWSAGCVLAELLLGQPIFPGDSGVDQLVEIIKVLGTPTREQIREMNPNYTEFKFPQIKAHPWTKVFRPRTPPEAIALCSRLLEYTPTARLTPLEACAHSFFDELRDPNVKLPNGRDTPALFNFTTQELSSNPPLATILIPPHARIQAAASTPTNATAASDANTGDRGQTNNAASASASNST
row,Compound,IC50 [µM]
1,"N#C/C(=C1\Nc2ccccc2O1)c1ccnc(NC2CC2)n1 [Example 10, 1,3-benzoxazol-2(3H)-ylidene[2-(cyclopropylamino)pyrimidin-4-yl]acetonitrile]",< 10
2,"N#C/C(=C1\Nc2ccccc2O1)c1ccnc(NCc2cccnc2)n1 [Example 41, 1,3-benzoxazol-2(3H)-ylidene{2-[(pyridin-3-ylmethyl)amino]pyrimidin-4-yl}acetonitrile]",< 10
3,"CC(C)OCCCNc1nccc(/C(C#N)=C2/Nc3ccccc3O2)n1 [Example 42, 1,3-benzoxazol-2(3H)-ylidene{2-[(3-isopropoxypropyl)amino]pyrimidin-4-yl}acetonitrile]",< 10
4,Cc1cc(/C(C#N)=C2/Nc3ccccc3O2)nc(NCCCn2cncn2)n1 [Example 47],< 10
5,"CCN1CCN(c2cc(/C(C#N)=C3/Nc4ccccc4O3)ncn2)CC1 [Example 49, 1,3-benzoxazol-2(3H)-ylidene[6-(4-ethylpiperazin-1-yl)pyrimidin-4-yl]acetonitrile]",< 10
6,"CC(=O)N1CCN(C(=O)CCCNc2nccc(/C(C#N)=C3\Nc4ccccc4O3)n2)CC1 [Example 70, (2-{[4-(4-acetyl-1-piperazinyl)-4-oxobutyl]amino}-4-pyrimidinyl)(1,3-benzoxazol-2(3H)-ylidene)ethanenitrile]",< 10
7,"CN(C)CCCC(=O)Nc1nccc(/C(C#N)=C2/Nc3ccccc3O2)n1 [Example 89, N-{4-[1,3-benzoxazol-2(3H)-ylidene(cyano)methyl]-2-pyrimidinyl}-4-(dimethylamino)butanamide]",< 10

# System: db/db mice
# Test: Experimental model of type II diabetes (oral postprandial glycemia in db/db mice)
# Format: in vivo
# Conditions: p.o. 50 mg/kg, 4 hrs after drug administration, food intake after 20 h fasting, compared to vehicle Group 1
# Experimental: b) In vivo Assay: Experimental Model of Type II Diabetes (Oral Postprandial Glycemia in db/db Mice)
# The following assay aims at determining the anti-diabetic effect of the test compounds of formula (I) in a model of postprandial glycemia in db/db mice, in vivo.
# The assay was performed as follows:
# A total of 24 db/db mice (about 8-9 weeks; obtained from IFFACREDO, l'Arbreste, France) were fasted during 20 hours.
# 2 groups, each consisting of 6 animals were formed: • Group 1: The animals were administered (per os) a dose of 10 mg/kg of vehicle. • Group 2: The animals were administered (per os) a dose of 50 mg/kg of the test compound according to formula (I).
# After oral administration of the compounds of formula (I) solubilized or suspended in CarboxyMethylCellulose (0.5%), Tween 20 (0.25%) and water as vehicle, the animals had access to commercial food (D04, UAR, Villemoisson/Orge, France) ad libitum. The diabetic state of the mice was verified by determining the blood glucose level before drug administration. Blood glucose and serum insulin levels were then determined 4 hrs after drug administration.
# The determination of the blood glucose level was performed using a glucometer (Precision Q.I.D., Medisense, Abbot, ref. 212.62.31). […]
# Changes in blood glucose and serum insulin of drug treated mice were expressed as a percentage of control (group 1: vehicle treated mice).
row,Compound,blood glucose level reduced (percentage of vehicle control)
1,"N#C/C(=C1\Nc2ccccc2O1)c1ccnc(NCCCN2CCCC2=O)n1 [Example 5, 1,3-benzoxazol-2(3H)-ylidene(2-{[3-(2-oxopyrrolidin-1-yl)propyl]amino}pyrimidin-4-yl)acetonitrile]",about 25%

# Same assay, conditions: p.o. 50 mg/kg, serum insulin 4 hrs after drug administration, compared to vehicle Group 1
row,Compound,insulin level reduced (percentage of vehicle control)
1,"N#C/C(=C1\Nc2ccccc2O1)c1ccnc(NCCCN2CCCC2=O)n1 [Example 5, 1,3-benzoxazol-2(3H)-ylidene(2-{[3-(2-oxopyrrolidin-1-yl)propyl]amino}pyrimidin-4-yl)acetonitrile]",about 11%
